In brackets after ≈: the same amount, converted by molar mass.
Assays:
Test in all cases: ≥ marks a high value that may be exact or a test limit, other limits are often not marked, values filed in µg/mL are converted to µM
[1] = test system: Pseudomonas aeruginosa ATCC 27853
[2] = test system: Staphylococcus aureus ATCC 43300
Pseudomonas aeruginosa = test system: Pseudomonas aeruginosa
[3] = test system: Klebsiella pneumoniae ATCC BAA-2146
[4] = test system: Klebsiella pneumoniae ATCC 13883
[5] = test system: Klebsiella pneumoniae ATCC 700603
Acinetobacter baumannii = test system: Acinetobacter baumannii
[6] = test system: Acinetobacter baumannii ATCC 19606
[7] = test system: Bacillus subtilis ATCC 6051
[8] = test system: Candida albicans ATCC 90028
[9] = test system: Escherichia coli ATCC 25922
Klebsiella pneumoniae = test system: Klebsiella pneumoniae
[10] = test system: Cryptococcus neoformans ATCC 208821

MIC [1]	MIC [2]	MIC (Pseudomonas aeruginosa)	MIC [3]	MIC [4]	MIC [5]	MIC (Acinetobacter baumannii)	MIC [6]	MIC [7]	MIC [8]	MIC [9]	MIC (Klebsiella pneumoniae)	MIC [10]	Structure (SMILES)
0.907 µM (≈ 2 µg/mL)	3.63 µM (≈ 7.99 µg/mL)	3.63 µM (≈ 7.99 µg/mL)	0.454 µM (≈ 0.999 µg/mL)	0.454 µM (≈ 0.999 µg/mL)	0.454 µM (≈ 0.999 µg/mL)	0.227 µM (≈ 0.5 µg/mL)	0.113 µM (≈ 0.25 µg/mL)	0.0567 µM (≈ 0.125 µg/mL)	3.63 µM (≈ 7.99 µg/mL)	0.113 µM (≈ 0.25 µg/mL)	> 7.26 µM	0.454 µM (≈ 0.999 µg/mL)	CC[C@H](C)[C@@H]1NC(=O)CNC(=O)[C@H](CCCN=C(N)N)NC(=O)[C@H](Cc2ccc(O)cc2)NC(=O)[C@@H](NC(=O)[C@@H](NC(=O)[C@H](CCCN=C(N)N)NC(=O)[C@H](Cc2ccccc2)NC(=O)[C@H](C)NC(=O)[C@H](Cc2c[nH]c3ccccc23)NC(=O)[C@@H](N)CCCCN)C(C)C)CSSC[C@@H](C(=O)N[C@@H](Cc2ccc(O)cc2)C(=O)N[C@@H](CCCN=C(N)N)C(=O)N[C@@H](CCCN=C(N)N)C(=O)N[C@@H](C)C(=O)N[C@@H](CCCN=C(N)N)C(=O)O)NC1=O [KWAFRVCYRGICYRRAR]
0.452 µM (≈ 0.998 µg/mL)	1.81 µM (≈ 3.99 µg/mL)	1.81 µM (≈ 3.99 µg/mL)	0.904 µM (≈ 2 µg/mL)	0.113 µM (≈ 0.25 µg/mL)	0.226 µM (≈ 0.499 µg/mL)	0.226 µM (≈ 0.499 µg/mL)	0.226 µM (≈ 0.499 µg/mL)	0.113 µM (≈ 0.25 µg/mL)	3.62 µM (≈ 7.99 µg/mL)	0.113 µM (≈ 0.25 µg/mL)	3.62 µM (≈ 7.99 µg/mL)	0.452 µM (≈ 0.998 µg/mL)	CC(C)[C@@H]1NC(=O)[C@H](CCCN=C(N)N)NC(=O)[C@H](Cc2ccccc2)NC(=O)[C@@H](NC(=O)[C@H](Cc2c[nH]c3ccccc23)NC(=O)[C@@H](N)CCCCN)CSSC[C@@H](C(=O)N[C@@H](CCCN=C(N)N)C(=O)O)NC(=O)[C@H](CCCN=C(N)N)NC(=O)[C@H](CCCN=C(N)N)NC(=O)[C@H](Cc2ccc(O)cc2)NC(=O)[C@@H]2CSSC[C@H](NC1=O)C(=O)N[C@@H](Cc1ccc(O)cc1)C(=O)N[C@@H](CCCN=C(N)N)C(=O)NCC(=O)NCC(=O)N2 [KWCFRVCYRGGCYRRCR]
1.83 µM (≈ 3.99 µg/mL)	1.83 µM (≈ 3.99 µg/mL)	1.83 µM (≈ 3.99 µg/mL)	0.458 µM (≈ 0.998 µg/mL)	0.115 µM (≈ 0.25 µg/mL)	0.916 µM (≈ 2 µg/mL)	0.115 µM (≈ 0.25 µg/mL)	0.115 µM (≈ 0.25 µg/mL)	0.0137 µM (≈ 0.0299 µg/mL)	0.916 µM (≈ 2 µg/mL)	0.115 µM (≈ 0.25 µg/mL)	7.33 µM (≈ 16 µg/mL)	0.115 µM (≈ 0.25 µg/mL)	CC[C@H](C)[C@@H]1NC(=O)CNC(=O)[C@H](CCCN=C(N)N)NC(=O)[C@H](Cc2ccc(O)cc2)NC(=O)[C@@H]2CSSC[C@H](NC1=O)C(=O)N[C@@H](Cc1ccc(O)cc1)C(=O)N[C@@H](CCCN=C(N)N)C(=O)N[C@@H](C)C(=O)N[C@H](C(=O)N[C@@H](CCCN=C(N)N)C(=O)O)CSSC[C@H](NC(=O)[C@H](Cc1c[nH]c3ccccc13)NC(=O)[C@@H](N)CCCCN)C(=O)N[C@@H](Cc1ccccc1)C(=O)N[C@@H](CCCN=C(N)N)C(=O)N[C@@H](C(C)C)C(=O)N2 [KWCFRVCYRGICYRACR]
0.115 µM (≈ 0.25 µg/mL)	0.229 µM (≈ 0.499 µg/mL)	0.229 µM (≈ 0.499 µg/mL)	0.229 µM (≈ 0.499 µg/mL)	0.0572 µM (≈ 0.125 µg/mL)	0.229 µM (≈ 0.499 µg/mL)	0.0572 µM (≈ 0.125 µg/mL)	0.0275 µM (≈ 0.0599 µg/mL)	0.0137 µM (≈ 0.0299 µg/mL)	1.83 µM (≈ 3.99 µg/mL)	0.0572 µM (≈ 0.125 µg/mL)	3.66 µM (≈ 7.99 µg/mL)	0.115 µM (≈ 0.25 µg/mL)	CC[C@H](C)[C@@H]1NC(=O)CNC(=O)[C@H](CCCN=C(N)N)NC(=O)[C@H](Cc2ccc(O)cc2)NC(=O)[C@@H]2CSSC[C@H](NC1=O)C(=O)N[C@@H](Cc1ccc(O)cc1)C(=O)N[C@@H](CCCN=C(N)N)C(=O)N[C@@H](CCCN=C(N)N)C(=O)N[C@H](C(=O)N[C@@H](CCCN=C(N)N)C(=O)O)CSSC[C@H](NC(=O)[C@H](Cc1c[nH]c3ccccc13)NC(=O)[C@@H](N)CCCCN)C(=O)N[C@@H](Cc1ccccc1)C(=O)N[C@@H](C)C(=O)N[C@@H](C(C)C)C(=O)N2 [KWCFAVCYRGICYRRCR]
